The record followed here is ChEMBL document CHEMBL3600303, “The N-Terminal T-T Motif of a Third-Generation HIV-1 Fusion Inhibitor Is Not Required for Binding Affinity and Antiviral Activity” (J Med Chem, 2015).

Data set [1] concerns the target Envelope glycoprotein gp160 (Human immunodeficiency virus 1) (UniProt Q72502). As to the kind of experiment: Binding affinity to HIV1 NL4-3 gp41 N-terminal heptad repeat V38A/N42T double mutant after 30 mins by CD spectroscopic analysis.
Data set [2] has the same target. As to the kind of experiment: Binding affinity to HIV1 NL4-3 gp41 N-terminal heptad repeat Q40H mutant after 30 mins by CD spectroscopic analysis.
Data set [3] has as its system Envelope glycoprotein gp160 (Human immunodeficiency virus 1), Q72502 [V38A]. Kind of data set: Binding affinity to HIV1 NL4-3 gp41 N-terminal heptad repeat V38A mutant after 30 mins by CD spectroscopic analysis.
Data set [4] concerns Human immunodeficiency virus 1. Kind of data set: Antiviral activity against wild type HIV1 NL4-3 infected in human TZM-bl cells assessed as inhibition of viral replication after 2 days by luciferase reporter gene assay. It is filed as functional, organism-based. The settings on record: Human immunodeficiency virus 1, NL4-3, TZM-bl, 48 h.
Data set [5] deals with Human immunodeficiency virus 1. As to the kind of experiment: Antiviral activity against HIV-1 ZM214M.15 pseudovirus infected in human TZM-bl cells assessed as inhibition of viral entry into cells after 48 hrs by single-cycle infection assay. Format: functional, organism-based. As to conditions: Human immunodeficiency virus 1, ZM214M.15, TZM-bl.
For data set [6], the target named is Envelope glycoprotein gp160 (Human immunodeficiency virus 1) (UniProt Q72502). Kind of data set: Binding affinity to HIV1 NL4-3 gp41 N-terminal heptad repeat I37T/N43K double mutant after 30 mins by CD spectroscopic analysis.
Data set [7] deals with Envelope glycoprotein gp160 (Human immunodeficiency virus type 1 group M subtype B (isolate HXB2)(HIV-1)) (UniProt P04578). Kind of data set: Binding affinity to HIV-1 HXB2 gp41 N-terminal heptad repeat assessed as thermostability of protein-compound complex at 10 uM after 30 mins by CD spectroscopic analysis. As to conditions: Human immunodeficiency virus 1.
The target is the same in data set [8]. As to the kind of experiment: Binding affinity to HIV-1 HXB2 gp41 N-terminal heptad repeat assessed as increase in 6-helix bundle thermostability at 10 uM after 30 mins by CD spectroscopic analysis. The settings on record: Human immunodeficiency virus 1.
For data set [9], the system named is Serum. Kind of data set: Metabolic stability in Sprague-Dawley rat serum at 4 mg/kg, ip measured at 0.5 to 4 hrs post dose. The settings on record: in vivo. Format: ADME, organism-based.
Data set [10] relates to Human immunodeficiency virus 1. Kind of data set: Antiviral activity against HIV1 NL4-3 pseudovirus infected in human TZM-bl cells assessed as inhibition of viral entry into cells after 48 hrs by single-cycle infection assay. As to conditions: Human immunodeficiency virus 1, NL4-3, TZM-bl. Format: functional, organism-based.
Data set [11] deals with Envelope glycoprotein gp160 (Human immunodeficiency virus 1) (UniProt Q72502). Kind of data set: Binding affinity to HIV1 NL4-3 gp41 N-terminal heptad repeat G36D mutant after 30 mins by CD spectroscopic analysis.
The test system of data set [12] is Human immunodeficiency virus 1. Kind of data set: Antiviral activity against HIV-1 SC42261.8 pseudovirus infected in human TZM-bl cells assessed as inhibition of viral entry into cells after 48 hrs by single-cycle infection assay. Format: functional, organism-based. As to conditions: Human immunodeficiency virus 1, SC42261.8, TZM-bl.
The target of data set [13] is Envelope glycoprotein gp160 (Human immunodeficiency virus 1) (UniProt Q72502). As to the kind of experiment: Binding affinity to HIV1 NL4-3 gp41 N-terminal heptad repeat I37T mutant after 30 mins by CD spectroscopic analysis.
Data set [14] has the same target. Kind of data set: Binding affinity to HIV1 NL4-3 gp41 N-terminal heptad repeat N43K mutant after 30 mins by CD spectroscopic analysis.
The nature of data set [15]: Thermostability of the compound in PBS assessed as melting temperature at 20 uM by CD spectroscopic analysis. It is filed as physicochemical. As to conditions: buffer.
The subject of data set [16] is Human immunodeficiency virus 1. Kind of data set: Antiviral activity against HIV-1 SF162 pseudovirus infected in human TZM-bl cells assessed as inhibition of viral entry into cells after 48 hrs by single-cycle infection assay. It is filed as functional, organism-based. As to conditions: Human immunodeficiency virus 1, SF162, TZM-bl.
Data set [17] concerns the target Envelope glycoprotein gp160 (Human immunodeficiency virus type 1 group M subtype B (isolate HXB2)(HIV-1)) (UniProt P04578). Kind of data set: Binding affinity to HIV-1 HXB2 gp41 N-terminal heptad repeat assessed as thermostability of compound at 10 uM after 30 mins by CD spectroscopic analysis. The settings on record: Human immunodeficiency virus 1.
Data set [18] shares this target. As to the kind of experiment: Binding affinity to HIV-1 HXB2 gp41 N-terminal heptad repeat assessed as thermostability of compound after 30 mins by CD spectroscopic analysis. As to conditions: Human immunodeficiency virus 1.
The subject of data set [19] is Human immunodeficiency virus 1. Kind of data set: Antiviral activity against ENF-resistant HIV1 NL4-3 harboring gp41 N-terminal heptad repeat V38A/N42T double mutant infected in human TZM-bl cells assessed as inhibition of viral entry into cells after 48 hrs by single-cycle infection assay. It is filed as functional, organism-based.
For data set [20], the system named is Human immunodeficiency virus 1. As to the kind of experiment: Ratio of IC50 for ENF-resistant HIV1 NL4-3 harboring gp41 N-terminal heptad repeat V38A mutant to IC50 for wild type HIV1 NL4-3. It is filed as functional.
For data set [21], the system named is Human immunodeficiency virus 1. Kind of data set: Ratio of IC50 for ENF-resistant HIV1 NL4-3 harboring gp41 N-terminal heptad repeat D36G mutant to IC50 for wild type HIV1 NL4-3. Format: functional.
Data set [22] concerns Human immunodeficiency virus 1. Kind of data set: Ratio of IC50 for ENF-resistant HIV1 NL4-3 harboring gp41 N-terminal heptad repeat Q40H mutant to IC50 for wild type HIV1 NL4-3. It is filed as functional.
For data set [23], the system named is Human immunodeficiency virus 1. Kind of data set: Antiviral activity against ENF-resistant HIV1 NL4-3 harboring gp41 N-terminal heptad repeat I37T/N43K double mutant infected in human TZM-bl cells assessed as inhibition of viral entry into cells after 48 hrs by single-cycle infection assay. Format: functional, organism-based.
Data set [24] deals with Human immunodeficiency virus 1. Kind of data set: Ratio of IC50 for ENF-resistant HIV1 NL4-3 harboring gp41 N-terminal heptad repeat I37T mutant to IC50 for wild type HIV1 NL4-3. It is filed as functional.
For data set [25], the system named is Human immunodeficiency virus 1. Kind of data set: Antiviral activity against wild type HIV-1. It is filed as functional, organism-based.
The test system of data set [26] is Human immunodeficiency virus 1. As to the kind of experiment: Antiviral activity against ENF-resistant HIV1 NL4-3 harboring gp41 N-terminal heptad repeat V38A mutant infected in human TZM-bl cells assessed as inhibition of viral entry into cells after 48 hrs by single-cycle infection assay. Format: functional, organism-based.
Data set [27] relates to Human immunodeficiency virus 1. As to the kind of experiment: Ratio of IC50 for ENF-resistant HIV1 NL4-3 harboring gp41 N-terminal heptad repeat D36S/V38M double mutant to IC50 for wild type HIV1 NL4-3. It is filed as functional.
Data set [28] relates to Human immunodeficiency virus 1. Kind of data set: Antiviral activity against wild type HIV1 NL4-3 infected in human TZM-bl cells assessed as inhibition of viral entry into cells after 48 hrs by single-cycle infection assay. It is filed as functional, organism-based. As to conditions: Human immunodeficiency virus 1, NL4-3, TZM-bl.
Data set [29] relates to Human immunodeficiency virus 1. As to the kind of experiment: Antiviral activity against ENF-resistant HIV1 NL4-3 harboring gp41 N-terminal heptad repeat D36S/V38M double mutant infected in human TZM-bl cells assessed as inhibition of viral entry into cells after 48 hrs by single-cycle infection assay. Format: functional, organism-based.
The test system of data set [30] is Human immunodeficiency virus 1. Kind of data set: Antiviral activity against ENF-resistant HIV1 NL4-3 harboring gp41 N-terminal heptad repeat N43K mutant infected in human TZM-bl cells assessed as inhibition of viral entry into cells after 48 hrs by single-cycle infection assay. It is filed as functional, organism-based.
Data set [31] concerns Human immunodeficiency virus 1. Kind of data set: Antiviral activity against ENF-resistant HIV1 NL4-3 harboring gp41 N-terminal heptad repeat I37T mutant infected in human TZM-bl cells assessed as inhibition of viral entry into cells after 48 hrs by single-cycle infection assay. Format: functional, organism-based.
Data set [32] concerns Human immunodeficiency virus 1. As to the kind of experiment: Ratio of IC50 for ENF-resistant HIV1 NL4-3 harboring gp41 N-terminal heptad repeat V38A/N42T double mutant to IC50 for wild type HIV1 NL4-3. It is filed as functional.
The test system of data set [33] is Human immunodeficiency virus 1. As to the kind of experiment: Antiviral activity against ENF-resistant HIV1 NL4-3 harboring gp41 N-terminal heptad repeat D36G mutant infected in human TZM-bl cells assessed as inhibition of viral entry into cells after 48 hrs by single-cycle infection assay. Format: functional, organism-based.
In data set [34] the test system is Human immunodeficiency virus 1. Kind of data set: Antiviral activity against ENF-resistant HIV1 NL4-3 harboring gp41 N-terminal heptad repeat V38M mutant infected in human TZM-bl cells assessed as inhibition of viral entry into cells after 48 hrs by single-cycle infection assay. Format: functional, organism-based.
For data set [35], the system named is Human immunodeficiency virus 1. Kind of data set: Ratio of IC50 for ENF-resistant HIV1 NL4-3 harboring gp41 N-terminal heptad repeat N43K mutant to IC50 for wild type HIV1 NL4-3. It is filed as functional.
Data set [36] concerns Human immunodeficiency virus 1. Kind of data set: Antiviral activity against ENF-resistant HIV1 NL4-3 harboring gp41 N-terminal heptad repeat Q40H mutant infected in human TZM-bl cells assessed as inhibition of viral entry into cells after 48 hrs by single-cycle infection assay. It is filed as functional, organism-based.
In data set [37] the test system is Human immunodeficiency virus 1. Kind of data set: Ratio of IC50 for ENF-resistant HIV1 NL4-3 harboring gp41 N-terminal heptad repeat V38M mutant to IC50 for wild type HIV1 NL4-3. It is filed as functional.
Data set [38] deals with Human immunodeficiency virus 1. Kind of data set: Antiviral activity against HIV-1 pseudovirus harboring Q66R/N126K double mutant. Format: functional, organism-based.
In data set [39] the target is Envelope glycoprotein gp160 (Human immunodeficiency virus type 1 group M subtype B (isolate HXB2)(HIV-1), UniProt P04578). As to the kind of experiment: Binding affinity to HIV-1 HXB2 gp41 N-terminal heptad repeat assessed as inhibition of 6-helix bundle formation after 30 mins by ELISA. Also noted: species or system Human immunodeficiency virus 1.
Data set [40] relates to Human immunodeficiency virus 1. As to the kind of experiment: Ratio of IC50 for ENF-resistant HIV1 NL4-3 harboring gp41 N-terminal heptad repeat I37T/N43K double mutant to IC50 for wild type HIV1 NL4-3. Format: functional.

Active and inactive are the calls of the source. The calls are words filed in the database; no cut-off is given here.

With “H-MTWEAWDRAIAEYAARIEALIRAAQEQQEKNEAALREL-OH”, the result in [1], in [2], in data set [3], in data set [6], in data set [8] and in data set [11] was Active. Moreover, the outcome in [13] and in [14] was Active. In addition, the concentration for half-maximal inhibition (IC50) in data set [4] was found to be 0.25 nM; in [5], 0.74 nM; in data set [10] it was 0.46 nM; in data set [12] it was 1.65 nM; in data set [16], 4.98 nM. In addition, the Tm in [7] was found to be 88.1 °C. The values for the Stability entry in data set [9] and in data set [15] were “Unstable” and “Stable”, respectively.
As for H-MTWEEWDKKIEEYTKKIEELI-OH, the half-inhibitory concentration (IC50) came to 3.13 nM in data set [4] and 4.26 nM in data set [10]. In data set [17], the Tm amounted to 76.2 °C.
As for H-MTWEAWDRAIAEYAARIEALIR-OH, in [18], the Tm stood at 68.2 °C. In [10], the IC50 was 86.7 nM.
With H-TTWEEWDKKIEEYTKKIEELI-OH, the results for the IC50 in [4] and in [10] were 17.4 nM and 18.9 nM, respectively. The Tm in data set [17] was 66.2 °C.
Take H-MTWEEWDKKIEEYTKKIEELIKKS-OH: the IC50 was found to be 0.9 nM in data set [4] and 1.29 nM in data set [10]. The Tm in data set [17] came to 78.2 °C.
Turning to “H-WEAWDRAIAEYAARIEALIRAAQEQQEKNEAALREL-OH”, the half-inhibitory concentration (IC50) was 0.6 nM in [19]; 1.9 nM in data set [23]; 1.34 nM in data set [25]; 1.4 nM in data set [26]; 0.48 nM in data set [4]; 1.1 nM in data set [28]. Further, the 50% inhibitory concentration (IC50) was found to be 1 nM in [29]; 0.73 nM in [5]; 2.1 nM in data set [30]; 2 nM in data set [31]; 1.9 nM in data set [33]; 1.7 nM in [34]. The IC50 in data set [10] turned out to be 1.07 nM; in data set [12], 1.67 nM; in data set [36], 1.2 nM; in data set [16] it was 5.75 nM; in data set [38], 7 nM; in data set [39], 77.4 nM. Besides, the “Ratio IC50” value in data set [20] worked out at 1.3; in data set [21] it was 1.7; in [22] it was 1.1; in data set [24] it was 1.8; in [27], 0.9; in [32] it was 0.6. In addition, the “Ratio IC50” value in [35] was 1.9; in data set [37], 1.6; in data set [40], 1.7. The outcome in data set [1], in data set [2], in [3], in data set [6], in data set [11] and in data set [13] was Active. The outcome in data set [14] was Active. The values for the Tm in data set [7] and in [15] were 81.2 °C and 46.1 °C, respectively. Further, in data set [9], the Stability entry is on record as “Stable”.
As to H-TTWEAWDRAIAEYAARIEALIR-OH, the Tm in data set [18] was 59.1 °C. Also, in data set [10], the IC50 came to 955 nM.
Consider H-TTWEEWDKKIEEYTKKIEELIKKS-OH, for which the IC50 in data set [4] is 26.1 nM; in [10], 46.8 nM. For the same substance, the Tm in [17] was determined as 66.3 °C.
